Reference: paper PMC3692431, “Anticonvulsant Activity of B2, an Adenosine Analog, on Chemical Convulsant-Induced Seizures” (PLoS ONE, 2013)

Molecular target: T1, A2A adenosine receptor (Rattus norvegicus, UniProt P30543)
T1 construct: from tissue; host or cells: striatum of male Wistar rats
Assay: Radioligand binding, [3H]MSX-2 displacement in rat striatal membranes
Conditions: 0.75 nM [3H]MSX-2
Description: Male Wistar rats were sacrificed. The cerebral cortex and striatum were then removed and homogenized in 10 volumes of ice-cold 50 mM Tris–HCl buffer (pH 7.4). The homogenates were centrifuged (48,000 ×g) at 4°C for 10 min, the supernatant decanted, and the pellet resuspended in the same volume of buffer before being centrifuged again. The final pellets were resuspended in 50 mM Tris–HCl buffer containing adenosine deaminase (1.2 U per mg of protein) to remove endogenous adenosine.
Binding affinity at adenosine A2A receptors was tested in rat striatal membranes using 0.75 nM [^3H]MSX-2 (104.8 Ci/mmol). The binding assay was carried out in Tris–HCl buffer (50 mM, pH 7.4) as previously described, [12]. Briefly, assays were performed by first incubating the mixtures on a shaking water-bath at 25°C for 30 min. Termination of the incubation was performed by rapid filtration through GF/B glass fiber filters. The radioactivity on the filter was measured using a scintillation counter. […] Inhibition curves were determined using eight different concentrations ranging from 10^−5 to 10^−8 M. The inhibition constants (Ki) were calculated using an equation from Cheng and Prusoff.

T1 sequence (P30543 whole entry): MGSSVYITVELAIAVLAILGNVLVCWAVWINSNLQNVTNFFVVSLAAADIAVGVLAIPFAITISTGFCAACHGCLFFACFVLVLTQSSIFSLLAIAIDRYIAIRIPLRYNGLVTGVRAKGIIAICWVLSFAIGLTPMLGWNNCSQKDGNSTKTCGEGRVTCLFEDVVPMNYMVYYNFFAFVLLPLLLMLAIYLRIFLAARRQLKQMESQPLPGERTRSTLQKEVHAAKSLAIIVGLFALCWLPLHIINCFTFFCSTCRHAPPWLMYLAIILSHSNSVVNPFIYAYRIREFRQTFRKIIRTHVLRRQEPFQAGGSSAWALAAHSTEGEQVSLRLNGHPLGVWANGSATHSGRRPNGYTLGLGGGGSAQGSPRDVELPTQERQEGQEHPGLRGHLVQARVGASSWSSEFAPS

`COc1cc(CNc2ncnc3c2ncn3[C@@H]2O[C@H](CO)[C@@H](O)[C@H]2O)ccc1O` [B2, N^6-(3-methoxyl-4-hydroxybenzyl) adenine riboside] gave a Ki of 370 nM.
